The results in this text go back to patent US8796268B2, “Heteroaryls and uses thereof” (Millennium Pharmaceuticals, Inc., priority 2010, dated 2014).

Molecules are shown by their SMILES.

Assay type in all cases: biochemical
In assay [1] the target is T1, Human PI3K beta (Homo sapiens, UniProt P42338).
T1 construct: His (N); host or cells: SF9 insect cells (baculovirus)
Description: Human PI3K beta enzyme assay (HTRF). Conditions: concentration not given, b1387 states 1.1 μM for PI3K α and β; for inhibition at 1.1 µM: read-out: p110 beta Percent Inhibition. The gist of the method: (§1)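 Compounds were mixed with 25 uM ATP, then with 3.5 uM di-C8 PI(4,5)P2 and His-tagged PI3K isoform (β 5.25 nM, δ 0.75 nM, γ 5 nM) at pH 7.00. After 30 min at room temperature, EDTA stopped the reaction and PIP3 was measured by HTRF over 1 h.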
(In general: TR-FRET usually uses a lanthanide donor and a delayed reading to cut background.)

The target of assay [2] is T2, Human PI3K gamma (Homo sapiens, UniProt P48736).
T2 construct: His (N); host or cells: SF9 insect cells (baculovirus)
T2 sequence (P48736 whole entry): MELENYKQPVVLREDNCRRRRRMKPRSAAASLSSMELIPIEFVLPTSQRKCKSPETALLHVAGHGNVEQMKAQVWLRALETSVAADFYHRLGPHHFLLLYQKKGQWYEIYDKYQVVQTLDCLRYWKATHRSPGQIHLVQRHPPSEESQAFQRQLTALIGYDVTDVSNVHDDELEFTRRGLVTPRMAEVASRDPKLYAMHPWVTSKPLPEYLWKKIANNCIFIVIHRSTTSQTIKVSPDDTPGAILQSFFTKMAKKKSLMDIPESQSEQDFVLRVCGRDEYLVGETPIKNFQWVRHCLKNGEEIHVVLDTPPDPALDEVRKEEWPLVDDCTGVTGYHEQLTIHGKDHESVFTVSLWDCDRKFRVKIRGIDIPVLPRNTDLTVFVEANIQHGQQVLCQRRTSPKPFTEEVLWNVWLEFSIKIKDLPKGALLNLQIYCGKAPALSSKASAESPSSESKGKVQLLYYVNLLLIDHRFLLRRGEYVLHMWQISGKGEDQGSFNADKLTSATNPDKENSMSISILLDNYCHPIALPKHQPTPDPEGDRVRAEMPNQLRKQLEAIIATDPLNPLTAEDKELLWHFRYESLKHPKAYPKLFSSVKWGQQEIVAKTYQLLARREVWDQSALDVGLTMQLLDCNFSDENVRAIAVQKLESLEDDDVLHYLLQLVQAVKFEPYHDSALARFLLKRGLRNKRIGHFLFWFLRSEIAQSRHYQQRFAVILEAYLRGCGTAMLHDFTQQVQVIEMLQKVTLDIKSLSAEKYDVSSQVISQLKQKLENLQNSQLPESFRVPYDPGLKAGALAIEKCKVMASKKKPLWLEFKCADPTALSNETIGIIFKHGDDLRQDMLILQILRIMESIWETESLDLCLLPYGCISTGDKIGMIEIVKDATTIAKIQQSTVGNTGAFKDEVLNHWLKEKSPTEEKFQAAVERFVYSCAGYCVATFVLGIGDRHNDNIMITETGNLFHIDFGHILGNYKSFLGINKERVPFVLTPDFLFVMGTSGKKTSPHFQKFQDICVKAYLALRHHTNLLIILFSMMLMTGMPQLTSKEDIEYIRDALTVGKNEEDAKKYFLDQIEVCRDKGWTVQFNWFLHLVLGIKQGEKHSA
Description: Human PI3K gamma enzyme assay (HTRF). Conditions: concentration not given, b1389 states 1.0 μM for PI3K δ and γ; for inhibition at 1 µM: read-out: p110 gamma Percent Inhibition. A digest of the protocol: as §1

The target in assay [3] is T3, Human PI3K delta (Homo sapiens, UniProt O00329).
T3 construct: His (N); host or cells: SF9 insect cells (baculovirus)
T3 sequence (O00329 whole entry): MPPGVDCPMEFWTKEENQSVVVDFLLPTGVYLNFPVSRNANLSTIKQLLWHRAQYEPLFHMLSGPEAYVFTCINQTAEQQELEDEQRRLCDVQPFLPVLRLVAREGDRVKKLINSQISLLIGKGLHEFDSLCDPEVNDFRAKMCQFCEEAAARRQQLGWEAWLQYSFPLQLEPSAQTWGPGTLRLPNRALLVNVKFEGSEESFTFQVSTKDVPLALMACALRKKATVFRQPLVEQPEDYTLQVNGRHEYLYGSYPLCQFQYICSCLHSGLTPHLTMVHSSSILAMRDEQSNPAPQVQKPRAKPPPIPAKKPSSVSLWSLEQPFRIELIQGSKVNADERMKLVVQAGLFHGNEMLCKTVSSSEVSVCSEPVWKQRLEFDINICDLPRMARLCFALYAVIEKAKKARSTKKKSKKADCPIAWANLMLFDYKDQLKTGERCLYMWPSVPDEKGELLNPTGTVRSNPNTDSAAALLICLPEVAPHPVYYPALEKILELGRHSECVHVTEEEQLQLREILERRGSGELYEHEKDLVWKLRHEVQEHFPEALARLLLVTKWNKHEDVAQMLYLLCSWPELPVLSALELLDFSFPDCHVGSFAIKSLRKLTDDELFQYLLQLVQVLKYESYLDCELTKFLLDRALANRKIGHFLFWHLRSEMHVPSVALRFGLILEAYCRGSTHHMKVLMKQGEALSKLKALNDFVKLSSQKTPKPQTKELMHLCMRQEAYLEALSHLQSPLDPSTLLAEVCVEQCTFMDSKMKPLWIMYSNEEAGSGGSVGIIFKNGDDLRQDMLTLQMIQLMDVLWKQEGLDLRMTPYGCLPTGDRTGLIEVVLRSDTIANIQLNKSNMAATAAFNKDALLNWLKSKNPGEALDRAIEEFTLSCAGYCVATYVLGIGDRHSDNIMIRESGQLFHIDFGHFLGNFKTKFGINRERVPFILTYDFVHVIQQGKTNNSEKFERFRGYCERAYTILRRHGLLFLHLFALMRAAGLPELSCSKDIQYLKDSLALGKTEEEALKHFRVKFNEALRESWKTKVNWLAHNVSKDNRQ
T3 sequence (P27986 whole entry partner): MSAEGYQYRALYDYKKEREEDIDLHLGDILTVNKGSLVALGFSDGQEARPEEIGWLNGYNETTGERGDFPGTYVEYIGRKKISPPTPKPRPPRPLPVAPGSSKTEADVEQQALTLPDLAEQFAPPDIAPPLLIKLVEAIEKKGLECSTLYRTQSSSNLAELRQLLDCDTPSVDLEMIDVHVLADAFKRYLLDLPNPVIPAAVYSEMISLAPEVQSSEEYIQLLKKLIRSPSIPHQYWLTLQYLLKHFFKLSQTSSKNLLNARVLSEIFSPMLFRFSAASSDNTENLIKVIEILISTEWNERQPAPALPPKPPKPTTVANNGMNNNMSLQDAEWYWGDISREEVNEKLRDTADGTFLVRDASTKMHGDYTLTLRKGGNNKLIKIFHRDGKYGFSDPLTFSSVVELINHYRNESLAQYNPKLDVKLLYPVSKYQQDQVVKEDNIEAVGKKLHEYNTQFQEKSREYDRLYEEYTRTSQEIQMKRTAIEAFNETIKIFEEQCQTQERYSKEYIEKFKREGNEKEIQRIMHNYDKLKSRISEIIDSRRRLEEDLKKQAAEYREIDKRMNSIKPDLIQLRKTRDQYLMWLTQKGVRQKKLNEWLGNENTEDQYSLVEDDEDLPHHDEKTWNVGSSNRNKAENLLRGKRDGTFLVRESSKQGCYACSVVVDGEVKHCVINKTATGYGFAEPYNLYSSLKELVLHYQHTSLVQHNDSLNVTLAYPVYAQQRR
Nature of the assay: Human PI3K delta enzyme assay (HTRF). The note with it: concentration not given, b1389 states 1.0 μM for PI3K δ and γ; for inhibition at 1 µM: read-out: p110 delta Percent Inhibition. A digest of the protocol:
as §1

The target in assay [4] is T4, Human PI3K alpha (Homo sapiens, UniProt P42336).
T4 construct: His (N); host or cells: SF9 insect cells (baculovirus)
T4 sequence (P42336 whole entry): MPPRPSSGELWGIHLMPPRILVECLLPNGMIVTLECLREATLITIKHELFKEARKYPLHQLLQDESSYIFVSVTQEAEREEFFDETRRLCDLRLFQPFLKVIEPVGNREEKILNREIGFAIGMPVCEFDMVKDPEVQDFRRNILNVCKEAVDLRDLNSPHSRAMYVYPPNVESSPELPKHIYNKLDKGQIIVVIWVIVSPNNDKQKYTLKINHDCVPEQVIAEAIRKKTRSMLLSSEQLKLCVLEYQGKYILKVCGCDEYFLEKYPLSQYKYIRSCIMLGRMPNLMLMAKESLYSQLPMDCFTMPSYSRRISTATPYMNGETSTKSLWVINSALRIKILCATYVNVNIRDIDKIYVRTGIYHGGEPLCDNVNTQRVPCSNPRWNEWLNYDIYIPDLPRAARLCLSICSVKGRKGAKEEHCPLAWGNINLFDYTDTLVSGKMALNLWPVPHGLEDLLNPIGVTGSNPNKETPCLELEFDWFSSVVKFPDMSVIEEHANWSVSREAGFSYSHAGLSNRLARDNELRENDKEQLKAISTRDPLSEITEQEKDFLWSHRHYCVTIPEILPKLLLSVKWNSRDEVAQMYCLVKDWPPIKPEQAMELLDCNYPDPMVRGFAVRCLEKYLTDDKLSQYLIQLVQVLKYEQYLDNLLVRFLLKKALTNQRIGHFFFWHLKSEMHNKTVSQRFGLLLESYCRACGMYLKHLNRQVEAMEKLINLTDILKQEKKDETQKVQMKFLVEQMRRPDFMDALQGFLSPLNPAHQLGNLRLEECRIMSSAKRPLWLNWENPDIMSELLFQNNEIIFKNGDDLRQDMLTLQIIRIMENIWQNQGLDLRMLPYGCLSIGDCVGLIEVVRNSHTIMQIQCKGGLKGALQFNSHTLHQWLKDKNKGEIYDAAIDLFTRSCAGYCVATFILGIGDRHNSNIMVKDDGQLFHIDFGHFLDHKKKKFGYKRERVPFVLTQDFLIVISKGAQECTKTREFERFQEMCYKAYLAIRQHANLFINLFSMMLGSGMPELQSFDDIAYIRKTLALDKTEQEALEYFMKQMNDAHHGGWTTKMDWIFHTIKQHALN
T4 sequence (P27986 whole entry partner): as the sequence (P27986 whole entry partner) above
Nature of the assay: Human PI3K alpha enzyme assay (HTRF). Conditions: concentration not given, b1387 states 1.1 μM for PI3K α and β; for inhibition at 1.1 µM: read-out: p110 alpha Percent Inhibition.

T1 sequence (P42338 whole entry): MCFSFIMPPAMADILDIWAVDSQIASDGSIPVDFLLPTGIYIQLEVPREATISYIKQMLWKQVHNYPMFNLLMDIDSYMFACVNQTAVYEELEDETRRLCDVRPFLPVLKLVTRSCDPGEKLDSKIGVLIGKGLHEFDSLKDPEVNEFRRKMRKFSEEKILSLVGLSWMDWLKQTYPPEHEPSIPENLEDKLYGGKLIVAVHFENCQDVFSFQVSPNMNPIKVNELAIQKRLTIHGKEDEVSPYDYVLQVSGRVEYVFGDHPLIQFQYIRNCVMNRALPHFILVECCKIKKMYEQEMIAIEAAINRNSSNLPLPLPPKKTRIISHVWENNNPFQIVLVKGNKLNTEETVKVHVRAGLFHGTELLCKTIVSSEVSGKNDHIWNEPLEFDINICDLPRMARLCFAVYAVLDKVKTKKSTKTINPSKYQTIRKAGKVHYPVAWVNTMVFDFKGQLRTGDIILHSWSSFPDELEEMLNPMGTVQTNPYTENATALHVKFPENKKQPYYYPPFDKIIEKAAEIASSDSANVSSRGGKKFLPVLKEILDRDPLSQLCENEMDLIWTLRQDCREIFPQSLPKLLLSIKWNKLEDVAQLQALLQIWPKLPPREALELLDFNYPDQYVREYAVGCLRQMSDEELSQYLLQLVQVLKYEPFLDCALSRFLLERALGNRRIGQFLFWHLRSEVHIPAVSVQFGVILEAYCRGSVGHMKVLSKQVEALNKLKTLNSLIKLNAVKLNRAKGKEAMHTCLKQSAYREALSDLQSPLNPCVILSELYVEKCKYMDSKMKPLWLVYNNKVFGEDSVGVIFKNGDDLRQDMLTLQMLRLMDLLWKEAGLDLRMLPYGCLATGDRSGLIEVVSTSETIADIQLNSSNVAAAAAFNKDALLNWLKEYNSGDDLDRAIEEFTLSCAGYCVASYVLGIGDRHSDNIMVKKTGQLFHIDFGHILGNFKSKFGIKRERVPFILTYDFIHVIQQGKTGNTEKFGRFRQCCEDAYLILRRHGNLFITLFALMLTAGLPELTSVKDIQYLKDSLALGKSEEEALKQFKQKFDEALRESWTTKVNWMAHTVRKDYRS
T1 sequence (P27986 whole entry partner): as the sequence (P27986 whole entry partner) above

As for `COC(=O)Nc1cc(-c2sc(-c3nnc[nH]3)c(C(O)c3ccc(Cl)cc3)c2C#N)ccn1` (centres unmarked) [Compound 195, Methyl {4-[4-[(4-chlorophenyl)(hydroxy)methyl]-3-cyano-5-(4H-1,2,4-triazol-3-yl)-2-thienyl]pyridin-2-yl}carbamate], the inhibition at 1.1 µM amounted to 74% in assay [1] and 52% in assay [4]. In addition, the results for the inhibition at 1 µM in assay [2] and in assay [3] were 8% and 88%, respectively.
For `CN[C@H]1CCN(C(c2ccc(Cl)cc2)c2cc(-c3ccnc(NC(C)=O)c3)sc2-c2nnc[nH]2)C1` (some centres unmarked) [Compound 163] the same measures were 110%, 97%, 25% and 106%.
Consider `N#Cc1c(-c2ccnnc2)sc(-c2nnc[nH]2)c1C(c1ccc(Cl)cc1)N1CCNCC1` (centres unmarked) [Compound 227], for which the inhibition at 1.1 µM in assay [1] was 76%; in assay [4], -2%. In addition, the inhibition at 1 µM in assay [2] is 3%; in assay [3], 24%.
For `O=C(O)c1sc(N2CCOCC2)nc1Cc1ccc2cccc(F)c2c1` [Compound 299] the same measures were 109%, 39%, 42% and 108%.
For the compound `COc1ccc2ccc(Cc3c(C(=O)O)sc(N4CCOCC4)c3C#N)cc2c1` [Compound 361], the inhibition at 1.1 µM in assay [1] came out at 115%; in assay [4], 104%. The values for the inhibition at 1 µM in assay [2] and in assay [3] were 60% and 111%, respectively.
For `CC(=O)Nc1cc(-c2nc(C(O)c3ccc(Cl)cc3)c(-c3nnc[nH]3)s2)ccn1` (centres unmarked) [Compound 238] the same measures were 88%, 72%, 11% and 96%.
For `Clc1ccc(Cc2nc(N3CCOCC3)sc2Cc2nnn[nH]2)cc1Cl` [Compound 350, 4-(5-((1H-tetrazol-5-yl)methyl)-4-(3,4-dichlorobenzyl)thiazol-2-yl)morpholine] the same measures were 58%, 6%, 3% and 41%.
For `COc1cccc(F)c1C(O)c1cc(-c2ccncc2)sc1-c1nnc[nH]1` (centres unmarked) [Compound 239] the same measures were 68%, 30%, 27% and 41%.
`COc1cc(C(O)c2cc(-c3ccncc3)sc2-c2nnc[nH]2)c(F)cc1Cl` (centres unmarked) [Compound 279]: the inhibition at 1.1 µM in assay [1] was found to be 106%; in assay [4] it was 19%. Further, the inhibition at 1 µM turned out to be 42% in assay [2] and 78% in assay [3].
In the case of `CN(C)C(c1ccc(Cl)c(Cl)c1)c1c(C(=O)O)sc(N2CCOCC2)c1C#N` (centres unmarked) [Compound 336], in assay [1], the “p110 beta Percent Inhibition” value came out at 90%. In addition, in assay [2], the “p110 gamma Percent Inhibition” value was determined as 10%. For the same compound, the “p110 delta Percent Inhibition” value in assay [3] amounted to 49%. Also, the “p110 alpha Percent Inhibition” value in assay [4] turned out to be 16%.
Consider `N#Cc1ccc2ccc(Cc3nc(N4CCOCC4)sc3C(=O)O)cc2c1` [Compound 325], for which the values for the inhibition at 1.1 µM in assay [1] and in assay [4] were 89% and 17%, respectively. The inhibition at 1 µM in assay [2] amounted to 22%; in assay [3] it was 89%.
Take `CC(=O)Nc1cc(-c2cc(C(c3ccc(Cl)cc3)N(C)C3CCNCC3)c(-c3nnc[nH]3)s2)ccn1` (centres unmarked) [Compound 222]: the inhibition at 1.1 µM in assay [1] turned out to be 98%; in assay [4] it was 68%. For the same compound, the inhibition at 1 µM in assay [2] came out at 9%; in assay [3], 102%.
For `OC(c1ccc(F)cc1Cl)c1cc(-c2ccncc2)sc1-c1nnc[nH]1` (centres unmarked) [Compound 187] the same measures were 95%, 32%, 25% and 77%.
For `OC(c1cccc(-c2ccncc2)c1)c1cc(-c2ccncc2)sc1-c1nnc[nH]1` (centres unmarked) [Compound 258], the inhibition at 1.1 µM in assay [1] was 86%; in assay [4], 18%. The values for the inhibition at 1 µM in assay [2] and in assay [3] were 13% and 47%, respectively.
For `OC(c1ccc(Cl)cc1Cl)c1cc(-c2ccncc2)sc1-c1nnc[nH]1` (centres unmarked) [Compound 219] the same measures were 101%, 32%, 31% and 107%.
For `COC(=O)Nc1cc(-c2cc(C(c3ccc(Cl)cc3)N3CCNCC3)c(-c3nnc[nH]3)s2)ccn1` (centres unmarked) [Compound 152] the same measures were 97%, 61%, 16% and 106%.
Turning to `N#Cc1c(N2CCOCC2)sc(C(=O)O)c1Cc1cc2cc(F)ccc2[nH]1` [Compound 312], the inhibition at 1.1 µM in assay [1] was 105%; in assay [4], 64%. In addition, the values for the inhibition at 1 µM in assay [2] and in assay [3] were 47% and 92%, respectively.
For `Cc1n[nH]c(C)c1-c1sc(-c2ccncc2)nc1Cc1ccc(Cl)cc1` [Compound 183] the same measures were 16%, -2%, 3% and 9%.
For `Cc1nc2cc(Cc3nc(N4CCOCC4)sc3C(=O)O)ccc2s1` [Compound 289] the same measures were 32%, 11%, 10% and 32%.
`CC(=O)Nc1cc(-c2cc(C(c3ccc(Cl)cc3)N3CCC[C@H]3CO)c(-c3nnc[nH]3)s2)ccn1` (single isomer, unassigned) [Compound 259]: in assay [1], the inhibition at 1.1 µM worked out at 100%. Besides, the “p110 gamma Percent Inhibition” value in assay [2] came to 25%. The inhibition at 1 µM in assay [3] amounted to 101%. In addition, the “p110 alpha Percent Inhibition” value in assay [4] is recorded as 69%.
With `OC(c1cc(-c2ccncc2)sc1-c1nnc[nH]1)c1cccc2ccccc12` (centres unmarked) [Compound 228], the inhibition at 1.1 µM in assay [1] stood at 94%; in assay [4] it was 24%. Further, the inhibition at 1 µM in assay [2] worked out at 11%; in assay [3], 57%.
On to `COc1cc(C(O)c2cc(-c3ccnnc3)sc2-c2nnc[nH]2)c(F)cc1Cl` (centres unmarked) [Compound 168], for which the “p110 beta Percent Inhibition” value in assay [1] was 107%. Moreover, the “p110 gamma Percent Inhibition” value in assay [2] is given as 58%. Also, the “p110 delta Percent Inhibition” value in assay [3] turned out to be 110%. For the same compound, the “p110 alpha Percent Inhibition” value in assay [4] was 23%.
Regarding `OC(c1ccc(Br)cc1)c1cc(-c2ccncc2)sc1-c1nnc[nH]1` (centres unmarked) [Compound 231], the inhibition at 1.1 µM in assay [1] was 104%; in assay [4], 34%. In addition, the values for the inhibition at 1 µM in assay [2] and in assay [3] were 47% and 77%, respectively.
For `O=C(O)c1sc(N2CCOCC2)nc1Cc1cc(Cl)c(Cl)cc1F` [Compound 290] the same measures were 104%, 23%, 49% and 104%.
With `O=C(O)c1sc(N2CCOCC2)nc1Cc1ccc2ccncc2c1` [Compound 344], the figures for the inhibition at 1.1 µM in assay [1] and in assay [4] were 103% and 24%, respectively. Besides, the inhibition at 1 µM in assay [2] turned out to be 59%; in assay [3] it was 102%.
For `N#Cc1c(N2CCOCC2)sc(C(=O)O)c1Cc1cc2ccc(Cl)cc2[nH]1` [Compound 359] the same measures were 109%, 90%, 64% and 102%.
In the case of `COc1ccc2cc(Cc3c(C(=O)O)sc(N4CCOCC4)c3C#N)ccc2c1` [Compound 301], the inhibition at 1.1 µM in assay [1] was 107%; in assay [4], 55%. For the same compound, the values for the inhibition at 1 µM in assay [2] and in assay [3] were 49% and 89%, respectively.
For `CC(=O)Nc1cc(-c2cc(C(c3ccc(Cl)cc3)N3CC(CCN)C3)c(-c3nnc[nH]3)s2)ccn1` (centres unmarked) [Compound 270] the same measures were 114%, 81%, 24% and 111%.
For `CN[C@@H]1CCN(C(c2ccc(Cl)cc2)c2cc(-c3ccnc(NC(C)=O)c3)sc2-c2nnc[nH]2)C1` (some centres unmarked) [Compound 209] the same measures were 107%, 92%, 34% and 108%.
For `COCC(c1ccc2ccccc2c1)c1c(C(=O)O)sc(N2CCOCC2)c1C#N` (centres unmarked) [Compound 306] the same measures were 109%, 81%, 51% and 108%.
`OC(c1cc(-c2ccncc2)sc1-c1nnc[nH]1)c1c(F)ccc2ccccc12` (centres unmarked) [Compound 281]: the inhibition at 1.1 µM in assay [1] amounted to 96%. The “p110 gamma Percent Inhibition” value in assay [2] turned out to be 56%. In addition, in assay [3], the “p110 delta Percent Inhibition” value was determined as 97%. In addition, in assay [4], the “p110 alpha Percent Inhibition” value was 52%.
For the compound `COC(c1ccc(Cl)cc1)c1cc(-c2ccnc(NC(C)=O)c2)sc1-c1nnc[nH]1` (centres unmarked) [Compound 220], the inhibition at 1.1 µM in assay [1] was 91%; in assay [4], 92%. Besides, the inhibition at 1 µM was determined as 9% in assay [2] and 99% in assay [3].
